Columns and labels:
Test in all cases: relative viability (nuclei count vs DMSO), 5 days (fraction); higher = more cells survive
MK-8033 + Pemetrexed = compound: Cn1cc(-c2cnc3ccc4ccc(CS(=O)(=O)NCc5ccccn5)cc4c(=O)c3c2)cn1 [MK-8033] + Nc1nc2[nH]cc(CCc3ccc(C(=O)N[C@@H](CCC(=O)O)C(=O)O)cc3)c2c(=O)[nH]1 [Pemetrexed] (partner 0.2 µM)
Outline: (§1)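 For relative viability, nuclei counts in treated wells were divided by those in vehicle wells. Lung cancer cell lines had been pin-tool dosed in 1536-well plates the day after seeding and cultured for 5 days, then fixed and stained in one step (final 0.05% Triton X-100, 1% formaldehyde, 1 ug/ml Hoechst) and imaged at 4×. Doses were one drug alone or a fixed anchor-drug dose plus five library-drug doses (not always all listed) in √10 steps, and values are duplicate-plate medians.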

MK-8033 + AZD7762 = compound: Cn1cc(-c2cnc3ccc4ccc(CS(=O)(=O)NCc5ccccn5)cc4c(=O)c3c2)cn1 [MK-8033] + NC(=O)Nc1cc(-c2cccc(F)c2)sc1C(=O)N[C@H]1CCCNC1 [AZD7762] (partner 0.2 µM)
Outline: as §1

MK-8033 + OSI-027 = compound: Cn1cc(-c2cnc3ccc4ccc(CS(=O)(=O)NCc5ccccn5)cc4c(=O)c3c2)cn1 [MK-8033] + COc1cccc2cc(-c3nc([C@H]4CC[C@H](C(=O)O)CC4)n4ncnc(N)c34)[nH]c12 [OSI-027] (partner 0.5 µM)
Outline: as §1

Irinotecan + Linsitinib = compound: CCc1c2c(nc3ccc(OC(=O)N4CCC(N5CCCCC5)CC4)cc13)-c1cc3c(c(=O)n1C2)COC(=O)[C@]3(O)CC [Irinotecan] + C[C@]1(O)C[C@@H](c2nc(-c3ccc4ccc(-c5ccccc5)nc4c3)c3c(N)nccn32)C1 [Linsitinib] (partner 1 µM)
Outline: as §1

Cell Line	relative viability (MK-8033 + Pemetrexed; first compound 0.02 µM)	relative viability (MK-8033 + Pemetrexed; first compound 0.06325 µM)	relative viability (MK-8033 + Pemetrexed; first compound 0.2 µM)	relative viability (MK-8033 + Pemetrexed; first compound 0.6325 µM)	relative viability (MK-8033 + Pemetrexed; first compound 2 µM)	relative viability (MK-8033 + AZD7762; first compound 0.02 µM)	relative viability (MK-8033 + AZD7762; first compound 0.06325 µM)	relative viability (MK-8033 + AZD7762; first compound 0.2 µM)	relative viability (MK-8033 + AZD7762; first compound 0.6325 µM)	relative viability (MK-8033 + AZD7762; first compound 2 µM)	relative viability (MK-8033 + OSI-027; first compound 0.02 µM)	relative viability (MK-8033 + OSI-027; first compound 0.06325 µM)	relative viability (MK-8033 + OSI-027; first compound 0.2 µM)	relative viability (MK-8033 + OSI-027; first compound 0.6325 µM)	relative viability (MK-8033 + OSI-027; first compound 2 µM)	relative viability (Irinotecan + Linsitinib; first compound 0.6325 µM)	relative viability (Irinotecan + Linsitinib; first compound 2 µM)	relative viability (Irinotecan + Linsitinib; first compound 6.325 µM)	relative viability (Irinotecan + Linsitinib; first compound 20 µM)
ChaGo-K-1	0.251	0.223	0.253	0.267	0.262	0.872	0.921	0.857	0.932	0.82	0.51	0.536	0.528	0.552	0.511				
LXF-289	0.963	0.874	0.901	0.883	0.837	1.15	1.02	0.958	1.18	1.08	0.809	0.668	0.667	0.83	0.806	0.951	0.414	0.2	0.186
HCC-827	0.232		0.257	0.267	0.243	0.259		0.196	0.207	0.238	0.774		0.735	0.801	0.758	0.599	0.302	0.241	0.258
HCC-44	0.672	0.695	0.681	0.691	0.603	1.04	1.04	0.994	1.06	1.02	0.472	0.508	0.465	0.605	0.522	0.677	0.305	0.168	0.249
NCI-H2023	0.21	0.211	0.216	0.22	0.222						0.432	0.288	0.335	0.319	0.223	0.714	0.503	0.198	0.0873
NCI-H1734	0.423	0.403	0.393	0.398	0.431	0.544	0.361	0.522	0.572	0.54	0.59	0.508	0.612	0.632	0.547	0.797	0.355	0.155	0.195
PC-14	0.143	0.121	0.142	0.149	0.135	0.357	0.296	0.351	0.302	0.354	0.835	0.742	0.828	0.773	0.73	0.902	0.609	0.188	0.204
SW 1573	0.866	0.807	0.766	0.834	0.791						0.818	0.529	0.544	0.603	0.513	0.627	0.534	0.2	0.178
NCI-H2342	0.729	0.805	0.773	0.814	0.752	0.636	0.438	0.454	0.454	0.646	0.588	0.64	0.719	0.665	0.632				
IA-LM																0.31	0.393	0.248	0.123
NCI-H661	0.907	0.867	0.876	0.909	0.905						0.727	0.656	0.687	0.699	0.668	0.583	0.476	0.334	0.256
NCI-H1650	0.429	0.332	0.457	0.39	0.336						0.677	0.404	0.568	0.644	0.485				
NCI-H2228	0.274	0.343	0.365	0.308	0.325						0.692	0.562	0.576	0.559	0.552	0.706	0.714	0.39	0.477
SK-LU-1	0.974	0.944	0.929	0.625	0.956						0.347	0.352	0.315	0.4	0.371	0.491	0.495	0.379	0.329
COR-L23	0.2	0.197	0.219	0.212	0.197						0.814	0.743	0.701	0.749	0.736	0.392	0.284	0.203	0.123
SW 900	0.489	0.401	0.47	0.507	0.463	0.575	0.487	0.564	0.621	0.498	0.597	0.437	0.515	0.448	0.597				
NCI-H2009	1.01	1.01	0.923	1.08	0.997						0.628	0.612	0.597	0.617	0.626	0.876	0.493	0.262	0.221
NCI-H1703						0.109	0.117	0.124	0.108	0.12						0.454	0.916	0.572	0.186
COR-L 105	1.22	0.744	1.14	1.12	1.05						0.687	0.429	0.635	0.638	0.671	0.883	0.898	0.637	0.314
NCI-H1299																0.721	0.865	0.463	0.266
SK-MES-1	0.986	0.949	0.904	0.892	0.853						0.621	0.592	0.566	0.605	0.535	0.997	0.646	0.315	0.281
NCI-H2170	0.275	0.266	0.299	0.257	0.26	0.733	0.768	0.829	0.828	0.848	0.682	0.639	0.7	0.732	0.707				
